Data on 21 molecules can be found in patent US11753395B2 (Kinnate Biopharma Inc., priority 2021, dated 2023).

As usually defined, the IC50 is the midpoint of a concentration-inhibition curve. One may read the EC50 as the concentration at which the effect is half-maximal. A high value points to weaker potency.

One experiment addresses T1, MET D1228N (Homo sapiens, UniProt P08581, D1228N).
T1 construct: purchased Signalchem M52-12IG
As to the kind of experiment: MET D1228N Mobility Shift Assay. The conditions noted are these: biochemical assay IC50; 100 μM ATP, 60 minute kinase reaction. The essentials:
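Enzyme at 0.313 nM preincubated 30 min at room temperature with 1.5 μM FAM-labelled peptide and 10 mM MgCl2 in HEPES buffer with DTT; reaction started with 100 μM ATP, run 60 min, stopped with EDTA. Substrate/product separated by microfluidic mobility shift; IC50 from inhibition of % conversion.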

Experiment [1] deals with T2, Ba/F3-TPR-MET-D1228N cells (Homo sapiens, UniProt P08581, D1228N, cells depend on it).
T2 construct: fused on or other part: P12270 (Nucleoprotein TPR)
T2 sequence (P08581 whole entry D1228N, the tested form may be a part): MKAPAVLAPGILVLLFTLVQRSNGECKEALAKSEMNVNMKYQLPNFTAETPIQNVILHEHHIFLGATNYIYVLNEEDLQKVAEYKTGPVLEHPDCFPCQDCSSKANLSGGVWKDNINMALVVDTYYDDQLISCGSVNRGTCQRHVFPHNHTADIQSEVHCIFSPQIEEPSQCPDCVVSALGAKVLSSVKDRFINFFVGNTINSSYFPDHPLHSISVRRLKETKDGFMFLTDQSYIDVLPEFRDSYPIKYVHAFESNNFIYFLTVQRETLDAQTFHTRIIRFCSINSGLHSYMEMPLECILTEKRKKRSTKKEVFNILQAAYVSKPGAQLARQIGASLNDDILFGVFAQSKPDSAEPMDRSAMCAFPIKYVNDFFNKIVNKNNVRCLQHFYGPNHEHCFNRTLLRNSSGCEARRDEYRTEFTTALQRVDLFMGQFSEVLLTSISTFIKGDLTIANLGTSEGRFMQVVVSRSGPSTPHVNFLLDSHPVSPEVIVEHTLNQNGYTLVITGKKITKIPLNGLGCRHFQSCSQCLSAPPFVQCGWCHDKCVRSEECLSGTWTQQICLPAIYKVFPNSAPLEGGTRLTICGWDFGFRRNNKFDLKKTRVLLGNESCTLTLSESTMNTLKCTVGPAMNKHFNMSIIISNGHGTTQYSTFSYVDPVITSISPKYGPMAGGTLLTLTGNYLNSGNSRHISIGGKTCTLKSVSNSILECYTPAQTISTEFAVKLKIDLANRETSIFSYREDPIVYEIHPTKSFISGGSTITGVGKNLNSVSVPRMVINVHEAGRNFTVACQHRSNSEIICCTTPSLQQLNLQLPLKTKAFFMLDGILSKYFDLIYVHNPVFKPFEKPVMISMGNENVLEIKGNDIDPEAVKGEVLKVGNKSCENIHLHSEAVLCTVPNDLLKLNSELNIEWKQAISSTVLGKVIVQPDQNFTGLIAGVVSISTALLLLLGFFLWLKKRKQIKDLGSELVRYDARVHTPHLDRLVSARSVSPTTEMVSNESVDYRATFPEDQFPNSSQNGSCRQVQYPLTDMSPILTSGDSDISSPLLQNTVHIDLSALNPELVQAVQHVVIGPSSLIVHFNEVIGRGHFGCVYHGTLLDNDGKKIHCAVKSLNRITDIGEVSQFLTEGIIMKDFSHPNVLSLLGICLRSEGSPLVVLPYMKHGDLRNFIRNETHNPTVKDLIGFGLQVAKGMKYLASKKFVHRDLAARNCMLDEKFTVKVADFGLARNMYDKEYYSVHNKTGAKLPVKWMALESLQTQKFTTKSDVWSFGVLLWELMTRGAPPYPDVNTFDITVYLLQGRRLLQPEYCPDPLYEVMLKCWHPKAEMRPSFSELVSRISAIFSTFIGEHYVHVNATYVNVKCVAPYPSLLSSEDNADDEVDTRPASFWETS
Briefly: CellTiter-Glo Cell Viability Assay, Ba/F3-TPR-MET-D1228N. The format is cell-based. The note with it: 72 hours. The procedure, abridged:
(§1)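 Ba/F3 cells carrying TPR-MET or TPR-MET-D1228N, 3000 per well, were exposed for 72 h at 37 °C to 9-point 3-fold compound dilutions at 0.1% DMSO. Viability was read as ATP by CellTiter-Glo 2.0 luminescence, and IC50 values came from curve fitting.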

For the next experiment, the target named is T3, MET (Homo sapiens, UniProt P08581).
T3 construct: purchased Carna Biosciences 08-151
T3 sequence (P08581 25-1390): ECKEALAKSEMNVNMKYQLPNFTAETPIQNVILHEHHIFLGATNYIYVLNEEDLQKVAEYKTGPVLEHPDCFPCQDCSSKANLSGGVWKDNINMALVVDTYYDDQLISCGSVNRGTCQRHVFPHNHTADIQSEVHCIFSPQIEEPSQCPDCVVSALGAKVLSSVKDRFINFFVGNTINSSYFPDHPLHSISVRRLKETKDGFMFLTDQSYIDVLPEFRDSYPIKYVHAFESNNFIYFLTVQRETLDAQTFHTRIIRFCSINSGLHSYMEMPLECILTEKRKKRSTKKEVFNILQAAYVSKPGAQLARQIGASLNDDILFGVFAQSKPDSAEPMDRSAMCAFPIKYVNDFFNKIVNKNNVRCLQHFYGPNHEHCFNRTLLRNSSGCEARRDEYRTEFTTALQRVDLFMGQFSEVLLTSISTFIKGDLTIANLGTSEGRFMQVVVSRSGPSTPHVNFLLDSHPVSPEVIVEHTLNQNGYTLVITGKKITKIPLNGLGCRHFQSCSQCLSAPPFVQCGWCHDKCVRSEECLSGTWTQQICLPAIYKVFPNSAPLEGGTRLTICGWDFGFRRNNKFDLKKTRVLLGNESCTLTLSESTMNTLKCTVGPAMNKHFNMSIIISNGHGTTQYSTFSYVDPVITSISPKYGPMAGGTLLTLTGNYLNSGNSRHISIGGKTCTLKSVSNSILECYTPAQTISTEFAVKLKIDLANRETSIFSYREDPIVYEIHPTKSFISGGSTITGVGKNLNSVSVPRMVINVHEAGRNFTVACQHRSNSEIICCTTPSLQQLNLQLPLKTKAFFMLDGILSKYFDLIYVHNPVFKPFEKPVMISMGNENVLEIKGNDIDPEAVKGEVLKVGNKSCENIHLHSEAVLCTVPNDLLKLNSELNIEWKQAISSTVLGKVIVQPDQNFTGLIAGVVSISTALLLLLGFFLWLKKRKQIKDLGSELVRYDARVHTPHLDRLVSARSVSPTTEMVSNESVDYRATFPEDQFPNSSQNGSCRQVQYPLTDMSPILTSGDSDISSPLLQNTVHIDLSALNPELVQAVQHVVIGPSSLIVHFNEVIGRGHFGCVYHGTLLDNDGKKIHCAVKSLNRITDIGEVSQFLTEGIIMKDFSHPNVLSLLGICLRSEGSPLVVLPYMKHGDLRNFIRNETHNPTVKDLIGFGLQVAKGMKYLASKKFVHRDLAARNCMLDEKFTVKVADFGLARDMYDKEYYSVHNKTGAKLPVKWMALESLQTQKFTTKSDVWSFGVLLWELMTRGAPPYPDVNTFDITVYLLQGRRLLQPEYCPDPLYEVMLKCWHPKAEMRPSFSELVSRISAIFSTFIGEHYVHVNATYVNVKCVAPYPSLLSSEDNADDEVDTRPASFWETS
Briefly: MET Mobility Shift Assay. The conditions noted are these: biochemical assay IC50; 100 μM ATP, 60 minute kinase reaction. The procedure, abridged: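 Recombinant MET at 0.625 nM was pre-incubated 30 min at room temperature with 1.5 μM FLPeptide30 and 10 mM MgCl2 in HEPES buffer with DTT. The reaction was started with 100 μM ATP, ran 60 min, and was stopped with EDTA. Microfluidic mobility-shift % conversion gave IC50.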

The target of a further experiment is T4, Ba/F3-TPR-MET cells (Homo sapiens, UniProt P08581).
T4 construct: fused on or other part: P12270 (Nucleoprotein TPR)
T4 sequence (P08581 whole entry, change not shown, the tested form may be a part): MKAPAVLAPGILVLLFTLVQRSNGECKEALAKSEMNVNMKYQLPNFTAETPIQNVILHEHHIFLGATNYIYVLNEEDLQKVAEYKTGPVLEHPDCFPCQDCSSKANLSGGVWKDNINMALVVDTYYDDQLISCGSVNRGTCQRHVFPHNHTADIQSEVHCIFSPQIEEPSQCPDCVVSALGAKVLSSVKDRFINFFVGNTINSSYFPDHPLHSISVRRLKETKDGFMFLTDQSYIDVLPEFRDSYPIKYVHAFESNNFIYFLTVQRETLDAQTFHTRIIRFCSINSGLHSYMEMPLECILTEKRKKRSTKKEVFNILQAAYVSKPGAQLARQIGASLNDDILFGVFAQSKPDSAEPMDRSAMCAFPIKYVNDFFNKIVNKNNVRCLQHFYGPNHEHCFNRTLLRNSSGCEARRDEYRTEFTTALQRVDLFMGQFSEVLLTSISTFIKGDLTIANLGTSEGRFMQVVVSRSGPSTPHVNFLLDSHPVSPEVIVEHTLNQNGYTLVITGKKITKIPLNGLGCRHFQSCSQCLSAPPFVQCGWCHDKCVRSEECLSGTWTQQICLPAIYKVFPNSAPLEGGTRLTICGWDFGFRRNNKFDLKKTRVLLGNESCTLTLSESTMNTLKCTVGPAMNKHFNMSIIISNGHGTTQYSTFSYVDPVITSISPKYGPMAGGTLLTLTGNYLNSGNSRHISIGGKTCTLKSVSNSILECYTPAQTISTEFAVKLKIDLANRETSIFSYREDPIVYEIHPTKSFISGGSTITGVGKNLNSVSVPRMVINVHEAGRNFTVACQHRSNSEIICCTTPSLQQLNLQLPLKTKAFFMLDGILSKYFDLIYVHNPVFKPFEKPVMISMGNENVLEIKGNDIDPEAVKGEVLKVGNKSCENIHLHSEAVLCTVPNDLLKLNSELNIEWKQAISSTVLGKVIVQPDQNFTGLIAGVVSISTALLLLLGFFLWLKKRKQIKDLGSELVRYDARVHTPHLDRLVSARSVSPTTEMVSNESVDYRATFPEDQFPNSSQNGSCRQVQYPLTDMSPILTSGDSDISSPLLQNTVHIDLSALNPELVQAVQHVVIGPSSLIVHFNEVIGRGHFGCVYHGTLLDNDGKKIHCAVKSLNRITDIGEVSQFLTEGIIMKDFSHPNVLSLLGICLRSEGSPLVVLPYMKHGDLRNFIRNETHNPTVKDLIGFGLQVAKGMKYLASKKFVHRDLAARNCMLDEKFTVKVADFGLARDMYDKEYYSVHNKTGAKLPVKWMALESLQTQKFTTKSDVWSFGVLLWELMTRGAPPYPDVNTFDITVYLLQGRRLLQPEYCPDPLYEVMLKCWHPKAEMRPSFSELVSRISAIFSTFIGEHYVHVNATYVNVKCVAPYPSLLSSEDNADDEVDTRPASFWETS
Briefly: CellTiter-Glo Cell Viability Assay, Ba/F3-TPR-MET. The format is cell-based. The note with it: 72 hours. The essentials:
as §1
A general note: ATP-based viability assays read luminescence as a measure of living cells.

On to `CC(C)(CO)Oc1ccc2c(Oc3c(F)cc(NC(=O)c4cnccc4OC4CC4)cc3F)ccnc2c1` [Example 108, 4-cyclopropoxy-N-(3,5-difluoro-4-((7-((1-hydroxy-2-methylpropan-2-yl)oxy)quinolin-4-yl)oxy)phenyl)pyridine-3-carboxamide], for which the IC50 at MET D1228N and at MET was no more than 100 nM throughout. Also, the EC50 (in experiment [1]; on Ba/F3-TPR-MET cells) was 1000 to 10000 nM throughout.
With `COc1ccncc1C(=O)Nc1cc(F)c(Oc2ccnc3ccc(O[C@@H](C)CO)cc23)c(F)c1` [Example 130, (S)-N-(3,5-difluoro-4-((6-((1-hydroxypropan-2-yl)oxy)quinolin-4-yl)oxy)phenyl) -4-methoxynicotinamide], the IC50 on MET D1228N and on MET was no more than 100 nM throughout. In addition, the EC50 in experiment [1] is no more than 100 nM; at Ba/F3-TPR-MET cells, 100 to 1000 nM.
Consider `CNCCOc1cc2nccc(Oc3c(F)cc(NC(=O)c4cnc(C)cc4OC4CC4)cc3F)c2cc1OC` [Example 117, 4-cyclopropoxy-N-[3,5-difluoro-4-({6-methoxy-7-[2-(methylamino)ethoxy]quinolin-4-yl}oxy)phenyl]-6-methylpyridine-3-carboxamide], for which the IC50 on MET D1228N and at MET was no more than 100 nM throughout. Moreover, the EC50 (in experiment [1]; on Ba/F3-TPR-MET cells) was no more than 100 nM each time.
On to `COc1ccncc1C(=O)Nc1cc(F)c(Oc2ccnc3cc(OCCO)ccc23)c(F)c1` [Example 41, N-(3,5-difluoro-4-((7-(2-hydroxyethoxy)quinolin-4-yl)oxy)phenyl)-4-methoxypyridine-3-carboxamide], for which the IC50 on MET D1228N and at MET was no more than 100 nM each time. Also, the EC50 in experiment [1] is no more than 100 nM; on Ba/F3-TPR-MET cells, 100 to 1000 nM.
`CNCCOc1ccc2c(Oc3c(F)cc(NC(=O)c4c(OC)ccnc4F)cc3F)ccnc2c1` [Example 9, N-(3,5-difluoro-4-((7-(2-(methylamino)ethoxy)quinolin-4-yl)oxy)phenyl)-2-fluoro-4-methoxypyridine-3-carboxamide]: the IC50 at MET D1228N and on MET was no more than 100 nM each time. For the same molecule, the values for the EC50 (in experiment [1]; at Ba/F3-TPR-MET cells) were no more than 100 nM and 100 to 1000 nM, respectively.
Regarding `COc1cc2nccc(Oc3c(F)cc(NC(=O)c4cnccc4OC)c(F)c3F)c2cc1O[C@@H](C)CO` [Example 133, (S)-4-methoxy-N-(2,3,5-trifluoro-4-((6-((1-hydroxypropan-2-yl)oxy)-7-methoxyquinolin-4-yl)oxy)phenyl)nicotinamide], the IC50 on MET D1228N and at MET was no more than 100 nM each time. The EC50 (in experiment [1]; on Ba/F3-TPR-MET cells) was no more than 100 nM throughout.
Consider `CNCCOc1ccc2c(Oc3c(F)cc(NC(=O)c4cnccc4OC4CC4)c(F)c3F)ccnc2c1` [Example 94, 4-cyclopropoxy-N-[2,3,5-trifluoro-4-({7-[2-(methylamino)ethoxy]quinolin-4-yl}oxy)phenyl]pyridine-3-carboxamide], for which the half-inhibitory concentration (IC50) at MET D1228N and on MET was no more than 100 nM in each case. Moreover, the EC50 (in experiment [1]; on Ba/F3-TPR-MET cells) was no more than 100 nM each time.
Consider `COc1cc2nccc(Oc3c(F)cc(NC(=O)c4cnccc4OC4CC4)cc3F)c2cc1O[C@@H](C)CO` [Example 129, (S)-4-cyclopropoxy-N-(3,5-difluoro-4-((6-((1-hydroxypropan-2-yl)oxy)-7-methoxyquinolin-4-yl)oxy)phenyl)nicotinamide], for which the IC50 on MET D1228N and at MET was no more than 100 nM in each case. For the same molecule, the EC50 (in experiment [1]; on Ba/F3-TPR-MET cells) was no more than 100 nM each time.
For `CNCCOc1cc2nccc(Oc3c(F)cc(NC(=O)c4cnccc4OCC(F)F)cc3F)c2cc1OC` [Example 60, N-[3,5-difluoro-4-({6-methoxy-7-[2-(methylamino)ethoxy]quinolin-4-yl}oxy)phenyl]-4-(2,2-difluoroethoxy)pyridine-3-carboxamide], the IC50 at MET D1228N and on MET was no more than 100 nM in each case. Besides, the EC50 (in experiment [1]; at Ba/F3-TPR-MET cells) was no more than 100 nM each time.
As for `COc1ccncc1C(=O)Nc1cc(F)c(Oc2ccnc3cc(OCCO)c(OC)nc23)c(F)c1` [Example 138, N-(3,5-difluoro-4-((7-(2-hydroxyethoxy)-6-methoxy-1,5-naphthyridin-4-yl)oxy)phenyl)-4-methoxypyridine-3-carboxamide], the IC50 at MET D1228N and at MET was no more than 100 nM each time. Also, the EC50 (in experiment [1]; at Ba/F3-TPR-MET cells) was no more than 100 nM in each case.
In the case of `CNCCOc1cc2nccc(Oc3c(F)cc(NC(=O)c4cnccc4OC4CC4)cc3F)c2cc1OC` [Example 54, 4-cyclopropoxy-N-[3,5-difluoro-4-({6-methoxy-7-[2-(methylamino)ethoxy]quinolin-4-yl}oxy)phenyl]pyridine-3-carboxamide], the concentration for half-maximal inhibition (IC50) at MET D1228N and at MET was no more than 100 nM each time. Also, the EC50 (in experiment [1]; on Ba/F3-TPR-MET cells) was no more than 100 nM each time.
In the case of `CNCCCOc1cc2nccc(Oc3c(F)cc(NC(=O)c4cnccc4OC4CC4)cc3F)c2cc1OC` [Example 84, 4-cyclopropoxy-N-(3,5-difluoro-4-((6-methoxy-7-(3-(methylamino)propoxy)quinolin-4-yl)oxy)phenyl)pyridine-3-carboxamide], the IC50 on MET D1228N and at MET was no more than 100 nM in each case. The values for the EC50 (in experiment [1]; at Ba/F3-TPR-MET cells) were no more than 100 nM and 100 to 1000 nM, respectively.
As to `C[C@H](O)COc1ccc2c(Oc3c(F)cc(NC(=O)c4cnccc4OC4CC4)cc3F)ccnc2c1` [Example 102, 4-cyclopropoxy-N-[3,5-difluoro-4-({7-[(2S)-2-hydroxypropoxy]quinolin-4-yl}oxy)phenyl]pyridine-3-carboxamide], the IC50 at MET D1228N and on MET was no more than 100 nM each time. The EC50 (in experiment [1]; at Ba/F3-TPR-MET cells) was 100 to 1000 nM throughout.
`CNCCOc1ccc2c(Oc3c(F)cc(NC(=O)c4cccnc4OC4CC4)cc3F)ccnc2c1` [Example 79, 2-cyclopropoxy-N-[3,5-difluoro-4-({7-[2-(methylamino)ethoxy]quinolin-4-yl}oxy)phenyl]pyridine-3-carboxamide]: the IC50 on MET D1228N and at MET was no more than 100 nM in each case. The EC50 (in experiment [1]; on Ba/F3-TPR-MET cells) was 100 to 1000 nM each time.
For the molecule `CCOc1ccncc1C(=O)Nc1cc(F)c(Oc2ccnc3cc(OCCCN4CCOCC4)c(OC)cc23)c(F)c1` [Example 28, N-(3,5-difluoro-4-((6-methoxy-7-(3-morpholinopropoxy)quinolin-4-yl)oxy)phenyl)-4-ethoxypyridine-3-carboxamide], the IC50 on MET D1228N and on MET was no more than 100 nM each time. Further, the 50% effective concentration (EC50) (in experiment [1]; at Ba/F3-TPR-MET cells) was no more than 100 nM in each case.
As to `CNCCOc1cc2nccc(Oc3c(F)cc(NC(=O)c4cnccc4OC4CCC4)cc3F)c2cc1OC` [Example 55, 4-cyclobutoxy-N-(3,5-difluoro-4-((6-methoxy-7-(2-(methylamino)ethoxy)quinolin-4-yl)oxy)phenyl)pyridine-3-carboxamide], the IC50 on MET D1228N and at MET was no more than 100 nM throughout. In addition, the EC50 in experiment [1] was no more than 100 nM; at Ba/F3-TPR-MET cells, 100 to 1000 nM.
Consider `CNCCOc1cc2nccc(Oc3c(F)cc(NC(=O)c4cnccc4OCC4CC4)cc3F)c2cc1OC` [Example 72, 4-(cyclopropylmethoxy)-N-[3,5-difluoro-4-({6-methoxy-7-[2-(methylamino)ethoxy]quinolin-4-yl}oxy)phenyl]pyridine-3-carboxamide], for which the IC50 on MET D1228N and at MET was no more than 100 nM each time. Further, the figures for the EC50 (in experiment [1]; on Ba/F3-TPR-MET cells) were no more than 100 nM and 100 to 1000 nM, respectively.
Turning to `CNCCOc1cc2nccc(Oc3c(F)cc(NC(=O)c4cnccc4OC)c(F)c3F)c2cc1OC` [Example 50, 4-methoxy-N-(2,3,5-trifluoro-4-((6-methoxy-7-(2-(methylamino)ethoxy)quinolin-4-yl)oxy)phenyl)pyridine-3-carboxamide], the IC50 at MET D1228N and on MET was no more than 100 nM throughout. In addition, the concentration giving a half-maximal response (EC50) (in experiment [1]; on Ba/F3-TPR-MET cells) was no more than 100 nM each time.
As to `COc1ccncc1C(=O)Nc1cc(F)c(Oc2ccnc3cc(OC)c(O[C@@H](C)CO)nc23)c(F)c1` [Example 145, (S)-N-(3,5-difluoro-4-((6-((1-hydroxypropan-2-yl)oxy)-7-methoxy-1,5-naphthyridin-4-yl)oxy)phenyl)-4-methoxynicotinamide], the IC50 at MET D1228N and on MET was no more than 100 nM throughout. The EC50 (in experiment [1]; at Ba/F3-TPR-MET cells) was no more than 100 nM in each case.
Regarding `C#CCOc1ccncc1C(=O)Nc1cc(F)c(Oc2ccnc3cc(OCCNC)c(OC)cc23)c(F)c1` [Example 73, N-[3,5-difluoro-4-({6-methoxy-7-[2-(methylamino)ethoxy]quinolin-4-yl}oxy)phenyl]-4-(prop-2-yn-1-yloxy)pyridine-3-carboxamide], the IC50 on MET D1228N and on MET was no more than 100 nM each time. Also, the concentration giving a half-maximal response (EC50) (in experiment [1]; on Ba/F3-TPR-MET cells) was no more than 100 nM throughout.
As for `COc1cc2c(Oc3c(F)cc(NC(=O)c4cnc(C)cc4OC4CC4)cc3F)ccnc2cc1OCCO` [Example 116, 4-cyclopropoxy-N-(3,5-difluoro-4-{[7-(2-hydroxyethoxy)-6-methoxyquinolin-4-yl]oxy}phenyl)-6-methylpyridine-3-carboxamide], the IC50 on MET D1228N and on MET was no more than 100 nM in each case. The EC50 (in experiment [1]; at Ba/F3-TPR-MET cells) was no more than 100 nM throughout.
